The subject of one test is cancer cell lines. Conditions: cytotoxicity SAR; cited from earlier work.
For test [1], the system named is NCI H-460 human lung tumor cells. The test is described as follows: Cytotoxicity in NCI H-460 human lung tumor cells, MTT reduction. The test is classed as cell-based. On the procedure: Cytotoxicity was measured in NCI H-460 human lung tumor cells with cell viability being determined by MTT reduction.^[23] Cells were seeded in 96-well plates at 6000 cells/well in 180 μL of medium. After 24 h, the test chemicals were dissolved in DMSO and diluted into medium without fetal bovine serum and then added at […]. DMSO was less than 0.5% of the final concentration. After 48 h, the medium was removed and cell viability determined.

Regarding (E)-34,35-dehydro-apratoxin A, in the test on cancer cell lines, the “loss of activity compared to apratoxin A” value is reported as 72-230 fold. As to `CC[C@H](C)[C@@H]1NC(=O)[C@H](C)N(C)C(=O)[C@H](Cc2ccc(OC)cc2)NC(=O)/C(C)=C/[C@H]2CSC(=N2)[C@@H](C)[C@@H](O)C[C@H](C)C[C@@H](C(C)(C)C)OC(=O)[C@@H]2CCCN2C1=O` [apratoxin B], the “loss of activity compared to apratoxin A” value in the test on cancer cell lines was 30 to 40 fold. The IC50 is the concentration that inhibits the measured activity by half. Consider `COc1ccc(C[C@@H]2NC(=O)/C(C)=C/C3CSC(=N3)[C@@H](C)[C@@H](O)C[C@H](C)C[C@@H](C(C)(C)C)OC(=O)[C@H](C)N(C)C(=O)[C@H](C(C)C)N(C)C(=O)[C@H](C)N(C)C2=O)cc1` (stereo partly shown) [apratoxin G], for which, in test [1] (H-460 cancer cells, MTT, 48 h), the IC50 is 14 nM. For the same compound, the “reduction in activity compared to apratoxin F” value in test [1] (N-methyl isoleucine exchanged for N-methyl valine) was 7 fold. For `CC[C@H](C)[C@H]1C(=O)N2CCC[C@H]2C(=O)O[C@H]([C@@H](C)CC(C)(C)C)C[C@@H](C)C[C@H](O)[C@H](C)C2=N[C@@H](/C=C(\C)C(=O)N[C@@H](Cc3ccc(OC)cc3)C(=O)N(C)[C@@H](C)C(=O)N1C)CS2` [apratoxin D], the “activity compared to apratoxin A” value in the test with cancer cell lines was “roughly equivalent activity”. Consider `CC[C@H](C)[C@H]1C(=O)N2CCC[C@H]2C(=O)O[C@H](C(C)C)C[C@@H](C)C[C@H](O)[C@H](C)C2=N[C@@H](/C=C(\C)C(=O)N[C@@H](Cc3ccc(OC)cc3)C(=O)N(C)[C@@H](C)C(=O)N1C)CS2` [apratoxin C], for which the “loss of activity compared to apratoxin A” value in the test with cancer cell lines is on record as 2 fold. As to apratoxin E, the “activity compared to apratoxin A” value in the test on cancer cell lines is given as “only a modest loss of activity”.

Source of the values: patent US8598313B2, “Compositions for ameliorating cell proliferative disorders and methods of making and using them” (priority 2010, dated 2013).
